Experimental data published in EP0126348A2, “Composition for rectal administration and method of promoting rectal drug absorption” (priority 1983, dated 1984).
Like-named read-outs stand apart in the source and are kept apart here. One block for each molecule: values may come before it.

What was measured:
[1] = Urinary excretion of drug after rectal administration of suppositories to fasted rabbits (bioassay); format: in vivo; settings: rabbit, 100 mg, rectal suppository, 100 mg in potency, read-out: Urinary excretion (0-6 hours)
Description: (§1) The suppositories were administered rectally to dogs or rabbits fasted for 24 hours. After administration, blood or urine sampling was conducted at times intervals and the drug concentration in blood or urinary drug excretion was estimated by determining the activity concentration by the bioassay method.

[2] = Blood concentration of drug after rectal administration of suppositories to fasted dogs (bioassay); format: in vivo; settings: rectal suppository, 100 mg in potency
Description: as §1

[3] = in vivo, base WITEPSOL H-5, additive Na caprate, 3%
[4] = dog, blood, 100 mg, base WITEPSOL H-5, additive Na caprate, 3% NIKKOL MYS-40, 4%, read-out: AUC

dose excreted at 6 h ([1]; urine, base WITEPSOL W-35, additive Glycerol monostearate, 3% Na caprate, 3%): 48.5% | dose excreted at 6 h ([1]; urine, base WITEPSOL W-35, additive Na caprate, 3% Disodium phosphate,3%): 40% | dose excreted at 6 h ([1]; urine, base WITEPSOL W-35, additive Na caprate, 3%): 30.1%
Molecule: NC[C@H]1O[C@H](O[C@H]2[C@H](O)[C@@H](O[C@H]3O[C@H](CO)[C@@H](O)[C@H](N)[C@H]3O)[C@H](N)C[C@@H]2N)[C@H](N)[C@@H](O)[C@@H]1O [Bekanamycin]

Molecule: NC[C@H]1O[C@H](O[C@H]2[C@H](O)[C@@H](O[C@H]3O[C@H](CO)[C@@H](O)[C@H](N)[C@H]3O)[C@H](N)C[C@@H]2N)[C@H](N)C[C@@H]1O [Tobramycin]
dose excreted at 6 h ([1]; in vivo, base WITEPSOL W-35, additive Na caprate, 2% NIKKOL BL-9, 4%): 53.8% | dose excreted at 6 h ([1]; in vivo, base WITEPSOL W-35, additive Na caprate, 2%): 41.6% | dose excreted at 6 h ([1]; in vivo, base WITEPSOL W-35, additive Na caprate, 3% Disodium tatrate, 4% NIKKOL BL-9, 4%): 49.2%

Molecule: CNC[C@@H]1CC[C@@H](N)[C@@H](O[C@H]2[C@H](O)[C@@H](O[C@H]3OC[C@](C)(O)[C@H](NC)[C@H]3O)[C@H](N)C[C@@H]2N)O1 [Micronomicin]
dose excreted at 6 h ([1]; in vivo, base WITEPSOL H-5, additive Na caprate, 3% Arginine Na, 4%): 48.2% | dose excreted at 6 h ([1]; in vivo, base WITEPSOL H-5, additive Na caprate, 3% NIKKOL BL-21, 4%): 50.3% | dose excreted at 6 h [1, 3]: 39.2%

AUC [2, 4]: 22200 ng·h/mL
Molecule: CO/N=C(\C(=O)N[C@@H]1C(=O)N2C(C(=O)O)=C(CSc3nc(=O)c(=O)[nH]n3C)CS[C@H]12)c1csc(N)n1 [Cefatriaxone]

AUC ([2]; dog, blood, 100 mg, base WITEPSOL H-5, additive NIKKOL MYS-40, 4%, read-out: AUC): 1000 ng·h/mL | AUC ([2]; dog, blood, 100 mg, base WITEPSOL H-5, additive Na caprate, 3% NIKKOL BL-21, 4% Disodium hydrogen phosphate, 1%, read-out: AUC): 42000 ng·h/mL | AUC ([2]; dog, blood, 100 mg, base WITEPSOL H-5, additive Na caprate, 3% NIKKOL BL-21, 4%, read-out: AUC): 37000 ng·h/mL | AUC ([2]; dog, blood, 100 mg, base WITEPSOL H-5, additive Na caprate, 3% NIKKOL MYS-40, 4% Sodium carbonate, 4%, read-out: AUC): 39900 ng·h/mL | AUC [2, 4]: 27400 ng·h/mL | AUC ([2]; dog, blood, 100 mg, base WITEPSOL H-5, additive Na caprate, 3% Sodium carbonate, 4%, read-out: AUC): 24400 ng·h/mL | AUC ([2]; dog, blood, 100 mg, base WITEPSOL H-5, additive Na caprate, 3%, read-out: AUC): 14400 ng·h/mL | AUC ([2]; dog, blood, 100 mg, base WITEPSOL H-5, additive None, read-out: AUC): 800 ng·h/mL
Molecule: NC[C@@H]1CC[C@@H](N)[C@@H](O[C@H]2[C@H](O)[C@@H](O[C@H]3O[C@H](CO)[C@@H](O)[C@H](N)[C@H]3O)[C@H](N)C[C@@H]2N)O1 [Dibekacin]

dose excreted at 6 h ([1]; urine, base WITEPSOL H-15, additive Na caprate, 2% NIKKOL BL-25, 4%): 51.6% | dose excreted at 6 h ([1]; urine, base WITEPSOL H-15, additive Na caprate, 2%): 30.8% | dose excreted at 6 h ([1]; urine, base WITEPSOL H-15, additive Na caprate, 3% Trisodium phosphate,4%): 55%
Molecule: CN[C@@H]1[C@@H](O)[C@@H](O[C@@H]2[C@@H](O)[C@H](O[C@H]3OC(CN)=CC[C@H]3N)[C@@H](N)C[C@H]2N)OC[C@]1(C)O [Sisomicin]

AUC ([2]; base WITEPSOL H-5, additive Na caprate, 3%): 14800 ng·h/mL | AUC ([2]; base WITEPSOL H-5, additive Na caprate, 3% NIKKOL BL-21, 4%): 30000 ng·h/mL | AUC ([2]; base WITEPSOL H-5, additive Na caprate, 3% NIKKOL MYS-40, 4%): 21700 ng·h/mL | AUC ([2]; base WITEPSOL H-5, additive Na caprate, 3% Sodium carbonate, 2%): 21700 ng·h/mL | AUC ([2]; base WITEPSOL H-5, additive None): 1200 ng·h/mL
Molecule: Fortimicin

Molecule: CC(C)(O/N=C(\C(=O)N[C@@H]1C(=O)N2C(C(=O)[O-])=C(C[n+]3ccccc3)CS[C@H]12)c1csc(N)n1)C(=O)O [Ceftazidime]
AUC ([2]; dog, in vivo, 100 mg, base WITEPSOL H-5, additive Na caprate, 3% Lysine, 4%, read-out: AUC): 30100 ng·h/mL | AUC ([2]; dog, in vivo, 100 mg, base WITEPSOL H-5, additive Na caprate, 3% Na citrate, 4%, read-out: AUC): 27600 ng·h/mL | AUC ([2]; dog, in vivo, 100 mg, base WITEPSOL H-5, additive Na caprate, 3% Sodium carbonate, 4%, read-out: AUC): 29800 ng·h/mL | AUC ([2]; base WITEPSOL H-5, additive Na caprate, 3% Sodium carbonate, 4%): 30900 ng·h/mL

dose excreted at 6 h ([1]; urine, base WITEPSOL H-5, additive Na caprate, 3% Lysine, 4%): 48% | dose excreted at 6 h ([1]; urine, base WITEPSOL H-5, additive Na caprate, 3% NIKKOL TO-10M, 4%): 52.6% | dose excreted at 6 h ([1]; urine, base WITEPSOL H-5, additive Na caprate, 3%): 40%
Molecule: CCN[C@@H]1C[C@H](N)[C@@H](O[C@H]2OC(CN)=CC[C@H]2N)[C@H](O)[C@H]1O[C@H]1OC[C@](C)(O)[C@H](NC)[C@H]1O [Netilmicin]

Molecule: NCC[C@H](O)C(=O)N[C@@H]1C[C@H](N)[C@@H](O[C@H]2O[C@H](CN)[C@@H](O)[C@H](O)[C@H]2O)[C@H](O)[C@H]1O[C@H]1O[C@H](CO)[C@@H](O)[C@H](N)[C@H]1O [Amikacin]
AUC ([2]; dog, in vivo, 100 mg, base WITEPSOL H-15, additive Na caprate, 3% NIKKOL BL-21, 3%, read-out: AUC): 17900 ng·h/mL | AUC ([2]; dog, in vivo, 100 mg, base WITEPSOL H-15, additive None, read-out: AUC): 1000 ng·h/mL | dose excreted at 6 h ([1]; in vivo, base WITEPSOL H-5, additive Na caprate, 3% NIKKOL MYS-40, 4%): 56% | dose excreted at 6 h ([1]; in vivo, base WITEPSOL H-5, additive Na caprate, 3% Sodium carbonate, 4%): 55.5% | dose excreted at 6 h [1, 3]: 35%
